“Also recorded” adds a separate entry of the source.

The text below walks through data of US12329755B2, “Bromodomain inhibitors to target therapy-resistant cancer” (University of Tennessee Research Foundation, priority 2019, dated 2025).

One assay deals with X16 BTICs. Conditions: X16 BTICs; cited from earlier work.
For another assay, the system named is X10 BTICs. Particulars: X10 BTICs; cited from earlier work.
The target of assay [1] is T1, GFP-tagged bromodomain of BRG1 (GFP-BRG1 BRD) (Homo sapiens, UniProt P51532).
T1 construct: a fluorescently tagged bromodomain of BRG1 expressed in MT330 GBM cells; expressed in transfected cells; host or cells: MT330 GBM cells
Kind of assay: nuclear localization of fluorescently tagged BRG1 bromodomain in MT330 GBM cells. In kind it is cell-based. Conditions: PFI-3 10 or 30 μM; IV-073 5, 10 or 30 μM; compared to DMSO. The text has this:
FIG. 4 is a series of fluorescence microscopy images showing the effects of Brahma-related gene-1 bromodomain inhibitors (BRIs) on the nuclear localization of a green fluorescent protein (GFP)-tagged bromodomain of Brahma-related gene-1 (GFP-BRG1 BRD).
The effects of PFI-3 and its analogs on the nuclear localization of a fluorescently tagged bromodomain of BRG1 expressed in MT330 GBM cells was studied. In the control samples, the fluorescent bromodomain is localized to the nucleus. However, an inhibitor displaces it from the nucleus and the fluorescence signal markedly decreases because it is degraded in the cytoplasm.

The next assay has as its system X16 BTIC. Briefly: X16 BTIC mouse flank xenografts. The assay is classed as in vivo, mice. Conditions: combined with TMZ; for tumor growth: 2 weeks post-treatment, compared with PFI-3 and TMZ, BRI 0.5 μg/mouse, TMZ 0.25 mg/mouse IP alternate days. Here is the method:
FIG. 1F is a graph showing the effect of temozolomide (TMZ) on the tumorigenicity of control (black portion of bars) and Brahma-related gene-1-knock-down (BRG1-KD) (grey portion of bars) brain-tumor initiating cells (BTICs) after injection of 10^6 tumor cells into the flanks of immunodeficient mice. Live animal imaging preformed at weekly intervals. After confirming tumor initiation by live animal imaging, mice were treated with TMZ by interperitoneal (IP) injection (10 milligrams per kilogram (mg/kg) on alternate days). The reduction in tumor volume was calculated at 1 week (left) and 2 weeks (right) post-treatment. *p≤0.05.
FIG. 5 is a graph showing the effect of Brahma-related gene-1 bromodomain inhibitors (BRIs), PFI-3 and the PFI-3 analogs (PAs) IV-073, IV-077, and IV-085, on the anticancer activity of temozolomide (TMZ) on brain-tumor initiating-cell (BTIC) tumor growth. BTICs (10^6 cells) from X16 glioblastoma were injected into the flanks of immunodeficient mice. After confirming tumor initiation by live animal imaging, mice were treated with PFI-3 or a PA (0.5 microgram per mouse (μg/mouse)) and TMZ (0.25 mg/mouse) by intrarperitoneal (IP) injection on alternate days. The reduction in tumor volume was calculated at 2 weeks post-treatment.
BRG1 loss sensitizes BTICs to TMZ in vitro and in vivo: Although the alkylating agent TMZ is front-line chemotherapy in the treatment of GBM, a significant clinical problem is intrinsic or adaptive resistance to TMZ.^63 To evaluate TMZ sensitivity, GBM6 or X16 BTICs were treated with 300 μM or 500 μM TMZ, and cell proliferation was determined. […] Since BRG1 has been implicated in DNA double-strand break repair,^65-67 it was hypothesized that BRG1 loss in BTICs would sensitize BTICs to TMZ. […] To determine whether BRG1-KD sensitized BTICs to TMZ in vivo, animal studies were conducted with control (scrambled shRNA) and BRG1-KD X16 BTICs injected into the flanks of NSG mice. After tumor initiation was confirmed by live animal imaging, mice were treated with TMZ. […] Thus, despite X16 BRG1-KD BTICs producing larger tumors, the tumors were sensitized to TMZ therapy.
In contrast, all mice with single drug treatment had to be euthanized because the tumors had reached […] by 3 weeks post-treatment.

The test system of assay [2] is LN229 TMZ-resistant glioma cell line. Kind of assay: IncuCyte live cell imaging proliferation assay. In kind it is cell-based. Conditions: for sensitization to TMZ: BRI 1 μM combined with 100 μM TMZ; for effect on cell growth: BRI alone (1 μM). Here is the method: FIG. 2A is a graph showing relative growth of temozolomide (TMZ)-resistant glioma cells (LN229 cells) alone (control); after treatment with 100 micromolar (μM) TMZ; after treatment with a Brahma-related gene-1 bromodomain inhibitor (BRI), PFI-3 (1 μM); or after treatment with both TMZ and PFI-3 (combined).
FIG. 2B is a graph showing relative growth of temozolomide (TMZ)-resistant glioma cells (LN229 cells) alone (control); after treatment with 100 micromolar (μM) TMZ; after treatment with a Brahma-related gene-1 bromodomain inhibitor (BRI), IV-073 (1 μM); or after treatment with both TMZ and IV-073 (combined).
FIG. 2C is a graph showing relative growth of LN229 Temozolomide (TMZ)-resistant glioma cells alone (control); after treatment with 100 micromolar (μM) TMZ; after treatment with a Brahma-related gene-1 bromodomain inhibitor (BRI), IV-077 (1 μM); or after treatment with both TMZ and IV-077 (combined).
FIG. 2D is a graph showing relative growth of LN229 Temozolomide (TMZ)-resistant glioma cells alone (control); after treatment with 100 micromolar (μM) TMZ; after treatment with a Brahma-related gene-1 bromodomain inhibitor (BRI), IV-085 (1 μM); or after treatment with both TMZ and IV-085 (combined).
To determine whether PFI-3 (also called YH-IV-081) and its analogs (referred to herein as “PAs”) enhanced TMZ sensitivity IncuCyte live cell imaging proliferation assays (high throughput system) were performed with the LN229 TMZ-resistant glioma cell line.

Another assay concerns the target T2, bromodomain of BRG1 (Homo sapiens, UniProt P51532).
T2 construct: The assay involved the use of the bromodomain of BRG1 in MT330 GBM cells; expressed in transfected cells; host or cells: MT330 GBM cells
Kind of assay: thermal shift assay of the BRG1 bromodomain in MT330 GBM cells. Particulars: 44.5° C. to 55.6° C.; PFI-3 30 μM, IV-073 20 μM, two hours; compared to DMSO. The assay is classed as binding. Here is the method: FIG. 3 is a series of immunoblot images showing the effects of Brahma-related gene-1 bromodomain inhibitors (BRIs) on the stability of the bromodomain of Brahma-related gene-1 in a thermal assay shift of the bromodomain in glioblastoma cells over a temperature range from 44.5 degrees Celsius (° C.) to 55.6° C. Cells were treated with (middle) PFI-3 (30 micromolar (μM)) for two hours or (right), a PFI-3 analog of the presently disclosed subject matter (IV-073) (20 μM) for two hours. For comparison, control cells treated with dimethyl sulfoxide (DMSO) are shown at […].
To further study the activity of the presently disclosed PFI-3 analogs, a thermal shift assay was employed. The assay involved the use of the bromodomain of BRG1 in MT330 GBM cells at temperatures ranging from 44.5° C. to 55.6° C.

Assay [3] deals with GBM cells. Kind of assay: overall statements on GBM cell death and sensitization to TMZ. The assay is classed as cell-based. Particulars: for sensitizing activity to TMZ compared to PFI-3: in vitro and in an animal model of GBM; for GBM cell death: used alone. An excerpt:
The syntheses of two exemplary PA BRIs, referred to herein as YH-IV-073 (or IV-073), and YH-IV-077 (or IV-077), as well as of PFI-3 (also referred to herein as YH-IV-081), are shown in Scheme 2, below. As shown in Scheme 2, commercially available tert-butyloxycarbonyl (BOC)-protected amine 1 is contacted with 2-bromopyridine (2) to form intermediate 3. The protecting group can be removed (e.g., via hydrolysis) to give the corresponding amine 4. Compound 4 can be coupled with a carboxylic acid (5, 6, or 7) to afford target YH-IV-073, YH-IV-077 and YH-IV-081, respectively. […] These analogs will provide greater insight into the importance of substitution of the A ring.
The synthetic route shown in Scheme 3, below, was used to synthesize new analogs with different substituents in the 2-position of the A-ring, such as YH-IV-085. As shown in Scheme 3, a commercially available 1-phenylprop-2-yn-1-one (e.g., 8 or 9) can be reacted with BOC-protected amine compound 1 to afford a BOC-protected intermediate (e.g., 10 or 11), which can be hydrolyzed to provide corresponding deprotected intermediate (12 or 13). The intermediates can be coupled with the 2-bromopyridine (2) to yield target compounds (e.g., 14 or YH-IV-085), respectively. YH-IV-085 is believed to be the first PFI-3 analog prepared without a 2-hydroxy moiety in the A-ring.

Assay [4] relates to GBM cells. Kind of assay: survival of mice after intracranial injection of GBM cells. In kind it is in vivo. Particulars: combination with TMZ, intraperitoneal, 10 mg/kg body weight. Here is the method: FIG. 6 is a graph showing the survival curves (percent survival versus days after treatment) of mice after intracranial injection of glioblastoma (GBM) cells and intraperitoneal injection of temozolomide (TMZ) or combinations of TMZ and a Brahma-related gene-1 bromodomain inhibitors (BRIs): PFI-3 or one of the presently disclosed PFI-3 analogs (PAs) IV-073 or IV-085. Five mice per group were treated with TMZ with or without the BRI (10 milligrams per kilogram (mg/kg) body weight.
TMZ with or without a BRI was also tested in mice after intercranial injection of GBM cells.

T1 sequence (P51532 1453-1564 limits assumed): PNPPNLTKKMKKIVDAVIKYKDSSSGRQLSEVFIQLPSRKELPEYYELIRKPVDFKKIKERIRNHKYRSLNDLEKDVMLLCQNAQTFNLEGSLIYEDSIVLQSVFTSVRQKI
T2 sequence (P51532 1453-1564 limits assumed): as above

Regarding `O=NN(CCCl)C(=O)NCCCl` [Carmustine], the Carmustine sensitivity result in the assay on X16 BTICs and with X10 BTICs was “highly resistant” each time.

With `O=C(/C=C/N1C[C@H]2C[C@@H]1CN2c1ccccn1)c1cc(F)ccc1O` [IV-073, (E)-1-(5-fluoro-2-hydroxyphenyl)-3-((1R,4R)-5-(pyridin-2-yl)-2,5-diazabicyclo[2.2.1]heptan-2-yl)prop-2-en-1-one], in assay [1], the “displacement of the BRG1 bromodomain from the nucleus” value was “more effective in displacing the bromodomain”. Besides, in the assay on X16 BTIC, the tumor growth result is given as “marked effect on tumor growth” and the “tumors after treatment for 8 weeks” value was “only small tumors were detectable”. In assay [2], the “sensitization to TMZ” value is reported as “potently sensitized” and the “effect on cell growth” value was “relatively minor effects on cell growth”. At bromodomain of BRG1, the “stabilization of the BRG1 bromodomain” value is on record as “more effective in stabilizing the bromodomain”. Also, the “sensitizing activity to TMZ compared to PFI-3” value in the assay with GBM cells [3] (listed as YH-IV-073) is recorded as “significantly improved sensitizing activity; also recorded: better efficacy”. Further, the GBM cell death entry in the assay with GBM cells [3] is listed as “do not cause GBM cell death”.

As for `O=C(/C=C/N1C[C@H]2C[C@@H]1CN2c1ccccn1)c1ccc(Cl)cc1O` [IV-077, (E)-1-(4-chloro-2-hydroxyphenyl)-3-((1R,4R)-5-(pyridin-2-yl)-2,5-diazabicyclo[2.2.1]heptan-2-yl)prop-2-en-1-one], in assay [2], the “sensitization to TMZ” value was “potently sensitized” and the “effect on cell growth” value is recorded as “relatively minor effects on cell growth”. Also, in the assay on GBM cells [3], the “sensitizing activity to TMZ compared to PFI-3” value is given as “significantly improved sensitizing activity” and the GBM cell death result is recorded as “do not cause GBM cell death”.

Turning to `O=C(/C=C/N1C[C@H]2C[C@@H]1CN2c1ccccn1)c1ccccc1Cl` [IV-085, (E)-1-(2-chlorophenyl)-3-((1R,4R)-5-(pyridin-2-yl)-2,5-diazabicyclo [2.2.1]heptan-2-yl) prop-2-en-1-one], in the assay with X16 BTIC, the tumor growth result is “marked effect on tumor growth” and the “tumors after treatment for 8 weeks” value was “only small tumors were detectable”. Further, in assay [2], the “sensitization to TMZ” value is given as “potently sensitized” and the “effect on cell growth” value is reported as “relatively minor effects on cell growth”. Also, the animal survival entry in the assay with GBM cells [4] is reported as “greatest effect”. Further, in the assay with GBM cells [3], the “sensitizing activity to TMZ compared to PFI-3” value is reported as “significantly improved sensitizing activity” and the GBM cell death entry was “do not cause GBM cell death”.
